Measured values reported in article PMC8954350, “Non-Canonical Cannabinoid Receptors with Distinct Binding and Signaling Properties in Prostate and Other Cancer Cell Types Mediate Cell Death” (International Journal of Molecular Sciences, 2022).

Columns and labels:
[1] = biological target: non-canonical CBRs expressed in C6-glioma; assay: Homologous receptor binding, C6-glioma; set-up: species or system mouse; conditions: homologous competition with [^3H]WIN-55,212-2 (1 nM), read-out: affinity (KD)
Description: (§1) All binding reactions were conducted in triplicate, in a final volume of 1 mL, and, following mixing, were incubated for 20 min in a 37 °C water bath to achieve equilibrium. After incubation, reactions were terminated by rapid vacuum filtration and processed for radioactivity, as detailed in Section 4.5.1.
(§2) Curve-fitting and all statistical analyses were performed using GraphPad Prism® v8.0g (GraphPad Software, Inc.; San Diego, CA, USA). For qRT-PCR experiments, a one-way ANOVA, followed by Dunnett’s test as a post hoc test was utilized to compare fold change of PC-3 and DU-145 cancer cells to an arbitrary value of 1, set to the amount of mRNA transcribed from a human normal prostate control. For CBR screening studies, a one-sample t-test was performed to determine differences from 100% (e.g., to quantify compounds producing displacement), followed by a one-way ANOVA and Tukey’s post hoc tests to compare displacement produced by all drugs. […] For LDH release, ATP-dependent cell viability and JC-1 staining assays, drug effects were first analyzed by a one-sample t-test to determine differences from 0 or 100% (vehicle), followed by a one-way ANOVA and Dunnett’s post hoc test to compare all means. […]

[2] = tested on: canonical human CB1Rs (CHO-hCB1); set-up: method as in PMID 34592231; conditions: 1 μM ligand, 0.2 nM radioligand, CHO-hCB1 membranes; cited from earlier work
[3] = tested on: CBRs expressed in PC-12 cells; assay: [^3H]WIN-55,212-2 competitive binding screen, PC-12 membranes; set-up: species or system rat; conditions: 1 μM ligand, 1 nM radioligand
Description: (§3) The assay was conducted as previously detailed. […] All binding reactions were conducted in triplicate, in a final volume of 1 mL, and, following mixing, were incubated for 20 min in a 37 °C water bath to achieve equilibrium. After incubation, reactions were terminated by rapid vacuum filtration through Whatman GF/B glass fiber filters (Brandel; Gaithersburg, MD, USA), followed by three washes of 4 mls of ice-cold filtration buffer (50 mM Tris, pH 7.4, and 0.05% bovine serum albumin). Samples were punched out from filter papers into scintillation vials, to which 4 mls of ScintiverseTM-BDR cocktail scintillation fluid (Fisher Scientific; Hampton, NH, USA) was added. Filters were incubated at room temperature for 24 h in scintillation fluid, vortexed, and radioactivity (measured as DPMs) was quantified via a liquid scintillation spectrophotometer (Tri Carb 2100 TR Liquid Scintillation Analyzer, Packard Instruments, Meriden, CT, USA).

[4] = tested on: CBRs expressed in HeLa cells; assay: [^3H]WIN-55,212-2 competitive binding screen, HeLa membranes; set-up: species or system human; conditions: 1 μM ligand, 1 nM radioligand
Description: as §3

[5] = tested on: canonical human CB1Rs (CHO-hCB1); set-up: method as in PMID 34592231; conditions: 1 μM ligand, 1 nM radioligand, CHO-hCB1 membranes; cited from earlier work
[6] = tested on: CBRs expressed in HeLa cells; assay: [^3H]CP-55,940 competitive binding screen, HeLa membranes; set-up: species or system human; conditions: 1 μM ligand, 0.2 nM radioligand
Description: as §3

[7] = biological target: non-canonical CBRs expressed in DU-145; assay: Homologous receptor binding, DU-145; set-up: species or system human; conditions: homologous competition with [^3H]WIN-55,212-2 (1 nM), read-out: affinity (KD)
Description: as §1, §2

[8] = biological target: non-canonical CBRs expressed in PC-12; assay: Homologous receptor binding, PC-12; set-up: species or system rat; conditions: homologous competition with [^3H]WIN-55,212-2 (1 nM), read-out: affinity (KD)
Description: as §1, §2

DU-145 cells = assay: ATP-dependent cell viability, DU-145 cells; type: cell-based, human; conditions: 24 h
Description: Adenosine 5′-triphosphate (ATP) levels were quantified as a measure of DU-145 cell viability in response to cannabinoid treatement using an ATP-luciferase-based bioluminescence assay kit (CellTiter-Glo®, Sigma, MO, USA) and BioTek microplate reader (Winooski, VT, USA). DU-145 cells were seeded at a density of 8 × 10^3 cells/well in a 96-well plate and incubated for 24 h at 37 °C with 5% CO2. The next day, cells were treated with either vehicle or experimental drugs (10 or 50 μM) and incubated for another 24 h at 37 °C with 5% CO2. ATP levels were assessed following incubation by interpolation from an ATP standard curve according to the manufacturer’s protocol, as described previously.

human CB2 receptors = biological target: T1, human CB2 receptors (Homo sapiens, UniProt P34972); assay: Competition binding, CHO-hCB2 membranes; conditions: membranes from CHO cells stably expressing human CB2
T1 construct: expressed in transfected cells
Description: as §1, with “The assay was performed as previously detailed. […] All” for “All”
Curve-fitting and all statistical analyses were performed using GraphPad Prism® v8.0g (GraphPad Software, Inc.; San Diego, CA, USA). […] For CBR screening studies, a one-sample t-test was performed to determine differences from 100% (e.g., to quantify compounds producing displacement), followed by a one-way ANOVA and Tukey’s post hoc tests to compare displacement produced by all drugs. […] To compare specific CBR affinity (Ki) between ligands, non-linear regression analysis was employed to determine experimental IC50 values from competition receptor binding assays, which were then converted to Ki values using the Cheng–Prusoff equation [35]. […] For LDH release, ATP-dependent cell viability and JC-1 staining assays, drug effects were first analyzed by a one-sample t-test to determine differences from 0 or 100% (vehicle), followed by a one-way ANOVA and Dunnett’s post hoc test to compare all means. […]

T1 sequence (P34972 whole entry): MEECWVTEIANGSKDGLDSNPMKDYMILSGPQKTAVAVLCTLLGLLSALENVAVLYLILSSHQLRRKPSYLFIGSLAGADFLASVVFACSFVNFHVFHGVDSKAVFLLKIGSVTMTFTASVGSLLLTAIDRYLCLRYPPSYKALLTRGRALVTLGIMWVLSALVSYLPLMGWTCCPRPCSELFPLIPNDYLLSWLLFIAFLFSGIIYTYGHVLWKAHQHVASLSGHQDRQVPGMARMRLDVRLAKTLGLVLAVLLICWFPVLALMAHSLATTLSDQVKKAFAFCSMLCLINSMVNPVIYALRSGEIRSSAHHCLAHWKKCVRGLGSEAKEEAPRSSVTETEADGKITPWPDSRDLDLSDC

Structure (SMILES)	Kd [1]	displacement of [^3H]CP-55,940 [2]	displacement of [^3H]WIN-55,212-2 (Figure 1B) [3]	displacement of [^3H]WIN-55,212-2 (Figure 1B) [4]	displacement of [^3H]WIN-55,212-2 (Figure 1B) [5]	displacement of [^3H]CP-55,940 [6]	Kd [7]	Kd [8]	reduction in ATP-dependent cell viability (ATP levels) (DU-145 cells; 50 μM)	concentration-dependent effect on ATP-dependent viability (DU-145 cells; 10–50 μM)	Ki (human CB2 receptors)
Cc1c(C(=O)c2cccc3ccccc23)c2cccc3c2n1[C@H](CN1CCOCC1)CO3 [WIN-55,212-2]	16.1 ± 2.5 nM	produced near or complete displacement	significantly displaced	significantly displaced	produced near or complete displacement	neither the non-selective CBR ligand CP-55,940 nor WIN-55,212-2 produced significant displacement	4.3 ± 0.89 nM	12.6 ± 2.7 nM	–	–	–
COc1ccc2c(c1)c(CCN1CCOCC1)c(C)n2C(=O)c1cccc(Cl)c1Cl [GW-405833]	–	–	–	–	–	–	–	–	68.8 ± 4.95%	only produced ATP-dependent reductions in cell viability at the highest 50 μM concentration	51 nM
